This is an account of results in patent publication US10940139B2, “Compounds that interact with the Ras superfamily for the treatment of cancers, inflammatory diseases, rasopathies, and fibrotic disease” (Shy Therapeutics LLC, priority 2017, dated 2021).

Assay [1] concerns the target KRas G12D/Q61H double mutant (Homo sapiens (Human), UniProt P01116, G12D/Q61H). Description: Ras GTP binding domain inhibition assay (labeled GTP). Particulars: at 20 μM; read-out: KRas G12D Q61H % Inh. The method in brief:
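His-tagged KRas protein (3-10 μg/ml) was captured overnight at 4° C on nickel-coated wells in 50 mM Tris pH 7.5, 1 mM MgCl2, 1 mM DTT. Bound labeled GTP was read by fluorescence after washing.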

The target of assay [2] is Rac-1 (Homo sapiens (Human), UniProt P63000). Description: Rac inhibition assay (labeled GTP). In kind it is binding. Particulars: read-out: Rac-1 % Inh.
Assay [3] has as its target Rho-A (Homo sapiens (Human), UniProt P61586). Description: Rho inhibition assay (labeled GTP). In kind it is binding. Particulars: read-out: Rho-A % Inh.

Sequence of Rho-A (P61586 whole entry): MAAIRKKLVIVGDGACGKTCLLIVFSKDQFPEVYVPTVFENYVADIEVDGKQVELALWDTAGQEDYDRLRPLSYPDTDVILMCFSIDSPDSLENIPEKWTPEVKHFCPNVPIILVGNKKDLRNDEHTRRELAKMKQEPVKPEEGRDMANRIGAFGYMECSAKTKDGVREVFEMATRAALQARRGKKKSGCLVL
Sequence of KRas G12D/Q61H double mutant (P01116-2 other isoform, or with tags, fused parts or gaps G12D/Q61H): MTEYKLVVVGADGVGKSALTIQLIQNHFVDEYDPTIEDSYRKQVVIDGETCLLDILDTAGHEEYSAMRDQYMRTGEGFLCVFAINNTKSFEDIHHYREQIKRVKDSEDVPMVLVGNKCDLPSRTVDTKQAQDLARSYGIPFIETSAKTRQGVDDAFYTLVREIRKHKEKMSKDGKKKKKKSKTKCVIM

For the compound `Cc1ccccc1C1CN(C(=O)c2csc3c(O)nc(-c4ccccn4)nc23)CCN1` (stereo not drawn) [drawing 3664], the inhibition at 20 µM in assay [1] fell in the range of 25 to 50%; in assay [2], 76 to 100%; in assay [3] it was 76 to 100%.
As for `Cc1ccccc1N1CCN(C(=O)c2csc3c(O)nc(-c4ccccn4)nc23)CC1` [drawing 3628], the inhibition at 20 µM in assay [1] lay in the range of 25 to 50%; in assay [2], 76 to 100%; in assay [3] it was 76 to 100%.
Take `O=C(c1csc2c(O)nc(-c3ccccn3)nc12)N1CCN(c2ccc(F)cc2F)CC1` [drawing 3649]: the inhibition at 20 µM fell in the range of 51 to 75% in assay [1], 76 to 100% in assay [2] and 51 to 75% in assay [3].
Turning to `COCCCCNC(=O)c1csc2nc(-c3ccccn3)nc(N3CCS(=O)(=O)CC3)c12` [drawing 3698], the inhibition at 20 µM in assay [1], in assay [2] and in assay [3] was 1 to 25% each time.
On to `COc1cc(CCN(C)C(=O)c2csc3nc(-c4ccccn4)nc(N4CCOCC4)c23)ccn1` [drawing 3670], for which the inhibition at 20 µM was 0% in assay [1], 76 to 100% in assay [2] and 51 to 75% in assay [3].
For `COc1ccc(C2CN(C(=O)c3csc4c(O)nc(-c5ccccn5)nc34)CCO2)cc1` (stereo not drawn) [drawing 3657], in that order: 25 to 50%, 25 to 50% and 25 to 50%.
The corresponding values for `O=C(c1csc2c(O)nc(-c3ccccn3)nc12)N1CCN(Cc2ccc(O)cc2)CC1` [drawing 3653] are 1 to 25%, 51 to 75% and 25 to 50%.
Turning to `COc1ncc(CCNC(=O)c2csc3nc(-c4ccccn4)nc(N4CCOCC4)c23)cn1` [drawing 3637], the inhibition at 20 µM in assay [1] lay in the range of 1 to 25%; in assay [2], 51 to 75%; in assay [3], 51 to 75%.
Regarding `O=C(c1csc2c(O)nc(-c3ccccn3)nc12)N1CCN(c2ccc(F)cc2)CC1` [drawing 3643], the inhibition at 20 µM in assay [1] is 0%; in assay [2], 51 to 75%; in assay [3] it was 51 to 75%.
On to `COc1ccc(CCNC(=O)c2csc3nc(-c4ccccn4)nc(N4CCS(=O)(=O)CC4)c23)cn1` [drawing 3725], for which the results for the inhibition at 20 µM in assay [1], in assay [2] and in assay [3] were 25 to 50%, 25 to 50% and 1 to 25%, respectively.
For `O=C(c1csc2c(O)nc(-c3ccccn3)nc12)N1CCNC(Cc2ccc(F)cc2)C1` (stereo not drawn) [drawing 3703], the inhibition at 20 µM in assay [1] was in the range of 51 to 75%; in assay [2], 76 to 100%; in assay [3] it was 76 to 100%.
As for `COc1nccc(CCNC(=O)c2csc3nc(-c4ccccn4)nc(N4CCOCC4)c23)n1` [drawing 3769], the inhibition at 20 µM is 1 to 25% in assay [1], 25 to 50% in assay [2] and 25 to 50% in assay [3].
As to `CC(C)(C)c1sc2c(O)nc(-c3ccccn3)nc2c1Br` [drawing 3872], the inhibition at 20 µM in assay [1], in assay [2] and in assay [3] was 25 to 50% in each case.
For the compound `O=C(c1cc2nc(-c3ccccn3)nc(O)c2s1)N1CCOC(c2ccccc2)C1` (stereo not drawn) [drawing 3714], the inhibition at 20 µM was 51 to 75% in assay [1], 76 to 100% in assay [2] and 76 to 100% in assay [3].
Regarding `Oc1nc(-c2ccccn2)nc2c(-c3ccc(CN4CCOCC4)cc3)csc12` [drawing 3754], the inhibition at 20 µM in assay [1] was 25 to 50%; in assay [2] it was 51 to 75%; in assay [3] it was 25 to 50%.
Consider `COCCCCN(C)C(=O)c1csc2nc(-c3ccccn3)nc(N3CCOCC3)c12` [drawing 3679], for which the inhibition at 20 µM lay in the range of 1 to 25% in assay [1], 76 to 100% in assay [2] and 51 to 75% in assay [3].
Consider `Oc1nc(-c2ccccn2)nc2c(CC3CCCNC3)csc12` (stereo not drawn) [drawing 3807], for which the inhibition at 20 µM in assay [1] lay in the range of 25 to 50%; in assay [2] it was 51 to 75%; in assay [3], 76 to 100%.
For `Oc1nc(-c2ccccn2)nc2c(-c3ccc(OC4CCCCC4)cc3)csc12` [drawing 3759], the inhibition at 20 µM in assay [1] was 25 to 50%; in assay [2] it was 51 to 75%; in assay [3], 51 to 75%.
Turning to `COc1cnc(CNC(=O)c2cc3nc(-c4ccccn4)nc(O)c3s2)[nH]c1=O` [drawing 3839], the inhibition at 20 µM lay in the range of 25 to 50% in assay [1], 51 to 75% in assay [2] and 51 to 75% in assay [3].
For the compound `Oc1nc(-c2ccccn2)nc2c(Br)c(-c3ccccc3)sc12` [drawing 3871], the inhibition at 20 µM in assay [1] was 0%; in assay [2] it was 25 to 50%; in assay [3], 1 to 25%.
As to `O=C(c1csc2c(O)nc(-c3ccccn3)nc12)N1CCNC(Cc2ccccc2)C1` (stereo not drawn) [drawing 3667], the inhibition at 20 µM lay within 25 to 50% in assay [1], 76 to 100% in assay [2] and 76 to 100% in assay [3].
`O=C(c1csc2c(O)nc(-c3ccccn3)nc12)N1CCOC(Cc2ccccc2)C1` (stereo not drawn) [drawing 3660]: the values for the inhibition at 20 µM in assay [1], in assay [2] and in assay [3] were 25 to 50%, 76 to 100% and 76 to 100%, respectively.
In the case of `Oc1nc(-c2ccccn2)nc2c(-c3ccc(C4CCC4)cc3)csc12` [drawing 3737], the inhibition at 20 µM in assay [1], in assay [2] and in assay [3] was 51 to 75% each time.
On to `Nc1nc(-c2ccccn2)nc(C(=O)NCCc2ccncc2)c1Oc1ccccc1` [drawing 3869], for which the inhibition at 20 µM in assay [1] is 25 to 50%; in assay [2] it was 51 to 75%; in assay [3], 25 to 50%.
Turning to `Cc1sc2c(N)nc(-c3ccccn3)nc2c1Br` [drawing 3765], the inhibition at 20 µM in assay [1], in assay [2] and in assay [3] was 25 to 50% in each case.
Regarding `COCCCCNC(=O)c1csc2nc(-c3ccccn3)nc(N3CCOCC3)c12` [drawing 3678], the inhibition at 20 µM lay in the range of 1 to 25% in assay [1], 51 to 75% in assay [2] and 51 to 75% in assay [3].
Regarding `Oc1nc(-c2ccccn2)nc2c(-c3ccccc3OC3CCCCC3)csc12` [drawing 3738], the inhibition at 20 µM in assay [1], in assay [2] and in assay [3] was 51 to 75% each time.
For the compound `Oc1nc(-c2ccccn2)nc2c(-c3ccccc3)c(-c3ccncc3)sc12` [drawing 3866], the inhibition at 20 µM is 0% in assay [1], 76 to 100% in assay [2] and 51 to 75% in assay [3].
The corresponding values for `Oc1nc(-c2ccccn2)nc2c(-c3ccc(OC4CCOCC4)cc3)csc12` [drawing 3739] are 25 to 50%, 51 to 75% and 51 to 75%.
For `COc1ccc2c(c1)CCC2C(=O)Nc1ccnc(-c2ccccn2)n1` (stereo not drawn) [drawing 3684], the inhibition at 20 µM in assay [1] lay within 1 to 25%; in assay [2], 51 to 75%; in assay [3], 51 to 75%.
Turning to `N#Cc1ccc2c(c1)CCCC2C(=O)Nc1ccnc(-c2ccccn2)n1` (stereo not drawn) [drawing 3727], the inhibition at 20 µM in assay [1], in assay [2] and in assay [3] was 51 to 75% in each case.
Consider `Cn1cnc(-c2nc(O)c3sc(-c4ccncc4)c(-c4ccccc4)c3n2)c1` [drawing 3867], for which the inhibition at 20 µM in assay [1] is 0%; in assay [2], 1 to 25%; in assay [3], 25 to 50%.
Turning to `O=C(c1csc2c(O)nc(-c3ccccn3)nc12)N1CCNC(c2ccc(F)cc2)C1` (stereo not drawn) [drawing 3696], the results for the inhibition at 20 µM in assay [1], in assay [2] and in assay [3] were 1 to 25%, 76 to 100% and 76 to 100%, respectively.
For `COc1cnc(CN)[nH]c1=O` [drawing 3690], the inhibition at 20 µM in assay [1], in assay [2] and in assay [3] was 25 to 50% throughout.
On to `Nc1nc(O)c2sc(-c3cccc(C(=O)NC4CCNC4=O)c3)cc2n1` (stereo not drawn) [drawing 3860], for which the inhibition at 20 µM in assay [1], in assay [2] and in assay [3] was 1 to 25% each time.
As for `Oc1nc(-c2ccccn2)nc2cc(-c3cccc(Br)c3)sc12` [drawing 3882], the inhibition at 20 µM in assay [1] fell in the range of 25 to 50%; in assay [2] it was 1 to 25%; in assay [3], 25 to 50%.
`COc1ccc(C2CN(C(=O)c3csc4c(O)nc(-c5ccccn5)nc34)CCN2)cc1` (stereo not drawn) [drawing 3663]: the inhibition at 20 µM in assay [1] is 1 to 25%; in assay [2], 76 to 100%; in assay [3], 76 to 100%.
As for `O=C(NCCc1ccncn1)c1csc2nc(-c3ccccn3)nc(N3CCOCC3)c12` [drawing 3819], the values for the inhibition at 20 µM in assay [1], in assay [2] and in assay [3] were 25 to 50%, 51 to 75% and 51 to 75%, respectively.
For `Cc1c(Br)sc2c(O)nc(-c3ccccn3)nc12` [drawing 3793], the inhibition at 20 µM in assay [1] was in the range of 25 to 50%; in assay [2] it was 51 to 75%; in assay [3], 51 to 75%.
For `COc1ccnc(-c2nc(O)c3c(C(F)(F)F)csc3n2)c1` [drawing 3705], the values for the inhibition at 20 µM in assay [1], in assay [2] and in assay [3] were 25 to 50%, 51 to 75% and 51 to 75%, respectively.
In the case of `Cn1ccnc1-c1nc(O)c2c(-c3ccccc3)c(-c3ccccc3)sc2n1` [drawing 3854], the inhibition at 20 µM in assay [1], in assay [2] and in assay [3] was 1 to 25% throughout.
For the compound `Oc1nc(-c2ccccn2)nc2c(-c3cncc(F)c3)csc12` [drawing 3782], the inhibition at 20 µM in assay [1], in assay [2] and in assay [3] was 1 to 25% each time.
